For series [1], the target named is T1, abscisic acid 8′-hydroxylase CYP707A3 (Arabidopsis thaliana, UniProt Q9FH76).
T1 sequence (Q9FH76 1-463): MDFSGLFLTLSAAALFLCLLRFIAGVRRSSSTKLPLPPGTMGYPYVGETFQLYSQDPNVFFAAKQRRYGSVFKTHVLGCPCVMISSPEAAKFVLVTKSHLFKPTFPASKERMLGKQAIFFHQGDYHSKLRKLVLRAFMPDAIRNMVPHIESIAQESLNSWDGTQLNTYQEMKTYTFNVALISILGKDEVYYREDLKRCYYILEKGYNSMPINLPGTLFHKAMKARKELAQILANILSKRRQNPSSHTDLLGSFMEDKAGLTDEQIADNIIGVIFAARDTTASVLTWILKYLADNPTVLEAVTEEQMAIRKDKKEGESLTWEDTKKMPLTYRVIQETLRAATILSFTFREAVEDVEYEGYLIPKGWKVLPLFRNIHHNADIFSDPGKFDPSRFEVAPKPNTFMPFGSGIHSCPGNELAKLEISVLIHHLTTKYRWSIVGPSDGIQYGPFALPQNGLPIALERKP
In words: Abscisic acid 8′-hydroxylase CYP707A3 inhibition test. The class given is biochemical. Conditions: CYP707A3 + NADPH-P450 reductase ATR1, substrate ABA, 30° C. 10 minutes; IC50 calculated from two concentrations. The method, then: In a 1.5 mL microtube, 10 μL of a solution of substrate 250 μM ABA in potassium/phosphate buffer (KPB), 5 μL of a solution of the sample in dimethylformamide, 435 μL of KPB and 40 μL of abscisic acid 8′-hydroxylase CYP707A3+NADPH-P450 reductase ATR1 were put and heated at 30° C. for 10 minutes. 10 μL of a solution of 5 mg/mL NADPH in KPB was added thereto thereby starting the enzyme reaction. The reaction was carried out at 30° C. for 10 minutes at a rotation speed of 1000 rpm, and 25 μL of an aqueous solution of 1 M sodium hydroxide was added thereto thereby terminating the reaction. The reaction solution was allowed to stand at 4° C. for 30 minutes and subsequently 50 μL of 1 M hydrochloric acid was added thereto to convert the enzyme metabolite to phaseic acid (PA). The enzyme reaction solution was subjected to an OASIS HLB cartridge (1 cc, 30 mg; washed with 1 mL of methanol (1% acetic acid) and equilibrated with 1 mL of water (1% acetic acid)) and washed with 1 mL of 10% methanol/water (1% acetic acid) thereby eluting phaseic acid with 1 mL of methanol (1% acetic acid). The eluate was concentrated under reduced pressure (toluene was added to azeotrope acetic acid), the obtained substance was dissolved in 50 μL of methanol. 20 μL of the solution was subjected to HPLC (column, YMC-Pack Hydrosphere C18 (6 mm inner diameter×150 mm length); flow rate 1 mL/min; detection 254 nm) analysis. The CYP707A3 inhibition rate of the samples was calculated in accordance with the following formula (3). Note that dimethylformamide was used for the control in place of the sample solution. Each sample was tested with two different concentrations to calculate the 50% inhibition concentration (IC50) based on the enzyme inhibition rates thereof The results are shown in Table 1.
Enzyme inhibition rate (%)={1-(PA peak area of each sample/PA peak area of control)}×100 . . . (3)

The target of series [2] is T2, ent-kaurene oxidase CYP701A6 (Oryza sativa subsp. japonica, UniProt Q5Z5R4).
T2 sequence (Q5Z5R4 1-505): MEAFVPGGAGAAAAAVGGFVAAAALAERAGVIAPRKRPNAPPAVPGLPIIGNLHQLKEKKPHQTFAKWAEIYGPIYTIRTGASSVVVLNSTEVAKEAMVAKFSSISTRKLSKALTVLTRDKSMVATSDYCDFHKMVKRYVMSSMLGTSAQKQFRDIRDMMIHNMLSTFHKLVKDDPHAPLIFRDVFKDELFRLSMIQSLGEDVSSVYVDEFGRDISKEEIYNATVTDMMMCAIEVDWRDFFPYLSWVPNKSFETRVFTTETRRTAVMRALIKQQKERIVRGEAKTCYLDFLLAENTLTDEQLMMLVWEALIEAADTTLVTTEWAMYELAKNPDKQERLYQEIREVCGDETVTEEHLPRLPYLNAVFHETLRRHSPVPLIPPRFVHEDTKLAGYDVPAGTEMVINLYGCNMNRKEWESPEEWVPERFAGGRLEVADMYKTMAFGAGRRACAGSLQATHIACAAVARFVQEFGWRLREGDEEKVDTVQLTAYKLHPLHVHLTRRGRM
In words: Ent-kaurene oxidase CYP701A6 inhibition test. The series is classed as biochemical. As to conditions: CYP701A6 + NADPH-P450 reductase ATR2, substrate ent-kaurene, 30° C. 30 minutes; IC50 calculated from two concentrations. The protocol: To a 1.5 mL microtube, 8 μL of an aqueous solution of 500 μM ent-kaurene as a substrate in 45% cyclodextrin and 8μL of a solution of the sample in dimethylformamide were put. 10 μL of 2.32 μM ent-kaurene oxidase CYP701A6 and 10 μL of 4.6 unit/mL NADPH-P450 reductase ATR2, heated at 30° C. for 5 minutes in advance, were added thereto. 304 μL of ultra-pure water, 40 μL of 500 mM KPB and 20 μL of an aqueous solution of 20 mM NADPH, heated at 30° C. for 10 minutes in advance, were added thereto thereby starting the enzyme reaction. The reaction was carried out at 30° C. for 30 minutes at a rotation speed of 1000 rpm and 100 μL of 1 M hydrochloric acid was added thereto thereby terminating the reaction. 5 μL of 10 μM abietic acid as the internal standard was added thereto, and the solution was extracted with 400 μL of ethyl acetate. The resultant was dried over sodium sulfate and subsequently concentrated under reduced pressure. 50 μL of methanol and 5 μL of 2 M trimethyl silyldiazomethane were added thereto to methylate carboxylic acid and the resultant was thy-solidified using nitrogen. The solidified product was dissolved in 150 μL of hexane and 1 μL of the resultant solution was subjected to a GC-MS analysis to detect the enzyme metabolite ent-kaurene acid. The CYP701A6 inhibition rate of the samples was calculated in accordance with the following formula (4). Note that the peak area of ent-kaurene acid was calculated from the peak area of m/z 273 and that ent-kaurene acid was identified from the area ratio of m/z 257, 213. The peak area of abietic acid was calculated from the area of m/z 256, and abietic acid was identified from the area ratio of m/z 316. Note that dimethylformamide was used for the control in place of the sample solution. Each sample was tested with two different concentrations to act late the 50% inhibition concentration (IC50) based on the enzyme inhibition rates thereof.
Enzyme inhibition rate (%)={1-(Ent-kaurene acid peak area of each sample/Abietic acid peak area of each sample/(Ent-kaurene acid peak area of control/Abietic acid peak area of control }×100 . . . (4)

Series [3] deals with seeds of thale cress (Arabidopsis thaliana, Col-0). The series can be described thus: Thale cress seed germination inhibition test (2). The class given is in vivo. Conditions: 120 hours after seed plantation (FIG. 3). The protocol: Seeds of thale cress (Arabidopsis thaliana, Col-0) were immersed in […] an aqueous solution of 70% ethanol for 30 minutes, subsequently in 500 μL of 100% ethanol for 1 minute, washed three times in 1 mL of distilled water, then immersed in distilled water and, in a dark place, verbalized at 4° C. for 3 days. A solution of the sample in methanol and a solution of ABA in methanol were put in a 1.5 mL microtube, and methanol was removed therefrom under reduced pressure. An aqueous solution of 0.5% agar (containing 1/2 MS medium inorganic salts) at 70° C. was added thereto, followed by stirring the resultant. The obtained solution was placed in a 96-well plate to provide the medium containing the sample. 20 to 30 vernalized seeds of thale cress were planted in each well and cultured at 22° C. under continuous light to monitor the number of seeds germinated over time. The germination rate was calculated in accordance with the following formula (1). Note that the medium prepared using methanol in the same manner as above was used as an untreated control and a germination rate of 100% was achieved 72 hours later from the seed plantation. Germination rates 72 hours later from the seed plantation are shown in FIG. 1 and initial growth conditions of thale cress 120 hours later are shown in FIG. 2.
Germination rate (%)=Number of seeds germinated/Number of seeds planted×100 . . . (1) […]

For the compound `CCCCOCCOCCOCc1cn(-c2ccc(/C=C(\C(O)C(C)(C)C)n3cncn3)cc2)nn1` (single isomer, unassigned) [Comparative Example 1 (+) Form, 1-(4-(4-((2-(2-butoxyethoxy)ethoxy)methyl)-1H-1,2,3-triazol-1-yl)phenyl)-4,4-dimethyl-2-(1H-1,2,4-triazol-1-yl)pent-1-en-3-ol, reference compound], the potency estimated from few doses was 1.1 µM in series [1] and 1.3 µM in series [2].

Consider `CCCCOCCOCCOCc1cn(-c2ccc(/C=C(\C(O)C(C)(C)C)n3cncn3)cc2)nn1` (single isomer, unassigned) [Comparative Example 1 (−) Form, 1-(4-(4-((2-(2-butoxyethoxy)ethoxy)methyl)-1H-1,2,3-triazol-1-yl)phenyl)-4,4-dimethyl-2-(1H-1,2,4-triazol-1-yl)pent-1-en-3-ol, reference compound], for which the potency estimated from few doses was 0.054 µM in series [1] and 1.2 µM in series [2].

As to `COCCOCCOCCOCC#Cc1cccc(/C=C(\C(O)C(C)(C)C)n2cncn2)c1` (single isomer, unassigned) [Example 1 (+) Form, (E)-1-(3-(2,5,8,11-tetraoxatetradec-13-yn-14-yl)phenyl)-4,4-dimethyl-2-(1H-1,2,4-triazol-1-yl)pent-1-en-3-ol], the potency estimated from few doses is 1.2 µM in series [1] and 1.6 µM in series [2].

Take `CCCCOCCOCCOCC#Cc1cccc(/C=C(\C(O)C(C)(C)C)n2cncn2)c1` (single isomer, unassigned) [Example 2 (+) Form, (E)-1-(3-(3-(2-(2-butoxyethoxy)ethoxy)prop-1-yn-1-yl)phenyl)-4,4-dimethyl-2-(1H-1,2,4-triazol-1-yl)pent-1-en-3-ol]: the potency estimated from few doses in series [1] was 0.24 µM; in series [2], 0.12 µM.

As to `CCCCOCCOCCOCC#Cc1cccc(/C=C(\C(O)C(C)(C)C)n2cncn2)c1` (single isomer, unassigned) [Example 2 (−) Form, (E)-1-(3-(3-(2-(2-butoxyethoxy)ethoxy)prop-1-yn-1-yl)phenyl)-4,4-dimethyl-2-(1H-1,2,4-triazol-1-yl)pent-1-en-3-ol], the potency estimated from few doses in series [1] was 0.012 µM; in series [2] it was 0.062 µM. For the same compound, the “seed germination inhibition compared with (−) form of Comparative Example 1” value in series [3] is on record as “can inhibit the seed germination even in lower concentrations”.

As to `COCCOCCOCCOCC#Cc1ccc(/C=C(\C(O)C(C)(C)C)n2cncn2)cc1` (single isomer, unassigned) [Example 3 (+) Form, (E)-1-(4-(2,5,8,11-tetraoxatetradec-13-yn-14-yl)phenyl)-4,4-dimethyl-2-(1H-1,2,4-triazol-1-yl)pent-1-en-3-ol], the figures for the potency estimated from few doses in series [1] and in series [2] were 7.7 µM and 17 µM, respectively.

Turning to `COCCOCCOCCOCC#Cc1ccc(/C=C(\C(O)C(C)(C)C)n2cncn2)cc1` (single isomer, unassigned) [Example 3 (−) Form, (E)-1-(4-(2,5,8,11-tetraoxatetradec-13-yn-14-yl)phenyl)-4,4-dimethyl-2-(1H-1,2,4-triazol-1-yl)pent-1-en-3-ol], the results for the potency estimated from few doses in series [1] and in series [2] were 1.5 µM and 8.6 µM, respectively.

As for `CCCCOCCOCCOCC#Cc1ccc(/C=C(\C(O)C(C)(C)C)n2cncn2)cc1` (single isomer, unassigned) [Example 4 (+) Form], the figures for the potency estimated from few doses in series [1] and in series [2] were 1 µM and 1.5 µM, respectively.

As to `CCCCOCCOCCOCC#Cc1ccc(/C=C(\C(O)C(C)(C)C)n2cncn2)cc1` (single isomer, unassigned) [Example 4 (−) Form], the potency estimated from few doses is 0.2 µM in series [1] and 0.77 µM in series [2].

The values above are taken from patent US9820487B2, “Abscinazole” (NATIONAL UNIVERSITY CORPORATION SHIZUOKA UNIVERSITY, priority 2014, dated 2017).
